# Measurements reported in ChEMBL document CHEMBL6071133, “Discovery of novel penetrating peptides able to target human leukemia and lymphoma for enhanced PROTAC delivery” (Eur J Med Chem, 2024).
# Active and inactive are the calls of the source. No cut-off for these calls is given here. Square brackets hold non-standard residues; d marks the D form. Peptide text beside a SMILES is read from it. Bta = N[C@@H](Cc1csc2ccccc12)C(=O)O
# How the values were obtained:
# [1] = Drug uptake in human K562 cells assessed as membrane penetration by measuring increase in fluorescence intensity at 5 umol/L incubated for 2 hrs by flow cytometry relative to C9C; assay type: ADME, cell-based; conditions: k562, 2 h, 5 µM, dose 5 µmol/L
# [2] = Drug uptake in human KU812 cells assessed as membrane penetration by measuring increase in fluorescence intensity at 5 umol/L incubated for 2 hrs by flow cytometry relative to C9C; assay type: ADME, cell-based; conditions: ku812, 2 h, 5 µM, dose 5 µmol/L
# [3] = Drug uptake in human CCRF-CEM cells assessed as membrane penetration by measuring increase in fluorescence intensity at 5 umol/L incubated for 2 hrs by flow cytometry relative to C9C; assay type: ADME, cell-based; conditions: 5 µM, dose 5 µmol/L
# [4] = Drug uptake in human K562 cells assessed as membrane permeability at 5 umol/L incubated for 2 hrs by flow cytometry relative to C9C; assay type: ADME, cell-based; conditions: k562, 2 h, 5 µM, dose 5 µmol/L
# [5] = Drug uptake in human KU812 cells assessed as membrane permeability at 5 umol/L incubated for 2 hrs by flow cytometry relative to C9C; assay type: ADME, cell-based; conditions: ku812, 2 h, 5 µM, dose 5 µmol/L
# [6] = Drug uptake in human K562 cells assessed as membrane permeability by measuring increase in fluorescence intensity at 5 umol/L incubated for 2 hrs by flow cytometry relative to THP-1 cells; assay type: ADME, cell-based; conditions: k562, 2 h, 5 µM, dose 5 µmol/L
# [7] = Drug uptake in human KU812 cells assessed as membrane permeability by measuring increase in fluorescence intensity at 5 umol/L incubated for 2 hrs by flow cytometry relative to THP-1 cells; assay type: ADME, cell-based; conditions: ku812, 2 h, 5 µM, dose 5 µmol/L
# [8] = Drug uptake in human K562 cells assessed as increase in fluorescence intensity at 1 to 10 uM incubated for 2 hrs by flow cytometry; assay type: ADME, cell-based; conditions: k562, 2 h, dose 1-10 µM
# [9] = Drug uptake in human KU812 cells assessed as increase in fluorescence intensity at 1 to 10 uM incubated for 2 hrs by flow cytometry; assay type: ADME, cell-based; conditions: ku812, 2 h, dose 1-10 µM
# [10] = Drug uptake in human K562 cells assessed as increase in fluorescence intensity at 5 umol/L measured for 5 to 30 mins by flow cytometry; assay type: ADME, cell-based; conditions: k562, 5 µM, TDE = time-dependent effect, time 5-30 min, dose 5 µmol/L
# [11] = Drug uptake in human K562 cells assessed as increase in fluorescence intensity at 5 umol/L measured for 60 to 240 mins by flow cytometry; assay type: ADME, cell-based; conditions: k562, 5 µM, TDE = time-dependent effect, time 60-240 min, dose 5 µmol/L
# [12] = Drug uptake in human K562 cells assessed as increase in fluorescence intensity at 1 to 10 umol/L incubated for 2 hrs by cell imaging based fluorescence microscopic analysis; assay type: ADME; conditions: k562, 2 h, dose 1-10 µmol/L
# [13] = Drug uptake in human KU812 cells assessed as increase in fluorescence intensity at 1 to 10 umol/L incubated for 2 hrs by cell imaging based fluorescence microscopic analysis; assay type: ADME; conditions: ku812, 2 h, dose 1-10 µmol/L
# [14] = Drug uptake in human K562 cells assessed as perinuclear distribution and colocalization with nucleus at 10 umol/L incubated for 2 hrs by confocal laser microscopy; assay type: ADME, cell-based; conditions: k562, 2 h, 10 µM, dose 10 µmol/L
# [15] = Drug uptake in human KU812 cells assessed as perinuclear distribution and colocalization with nucleus at 10 umol/L incubated for 2 hrs by confocal laser microscopy; assay type: ADME, cell-based; conditions: ku812, 2 h, 10 µM, dose 10 µmol/L
# [16] = Drug uptake in human CCRF-CEM cells assessed as perinuclear distribution and colocalization with nucleus at 10 umol/L incubated for 2 hrs by confocal laser microscopy; assay type: ADME, cell-based; conditions: 10 µM, dose 10 µmol/L
# [17] = Drug uptake in human K562 cells assessed as increase in fluorescence intensity at 5 umol/L pretreated with endocytosis inhibitor, nystatin for 0.5 hrs followed by incubation with compound for 2 hrs by FACS analysis; assay type: ADME, cell-based; conditions: k562, 2 h, 5 µM, dose 5 µmol/L
# [18] = Drug uptake in human K562 cells assessed as fluorescence intensity at 5 umol/L pretreated with endocytosis inhibitor, chloroquine for 0.5 hrs followed by incubation with compound for 2 hrs by FACS analysis; assay type: ADME, cell-based; conditions: k562, 2 h, 5 µM, dose 5 µmol/L
# [19] = Drug uptake in human K562 cells assessed as fluorescence intensity at 5 umol/L pretreated with endocytosis inhibitor, chlorpromazine for 0.5 hrs followed by incubation with compound for 2 hrs by FACS analysis; assay type: ADME, cell-based; conditions: k562, 2 h, 5 µM, dose 5 µmol/L
# [20] = Drug uptake in human K562 cells assessed as fluorescence intensity at 5 umol/L pretreated with endocytosis inhibitor, methyl-beta-cyclodextrin for 0.5 hrs followed by incubation with compound for 2 hrs by FACS analysis; assay type: ADME, cell-based; conditions: k562, 2 h, 5 µM, dose 5 µmol/L
# [21] = Stability of the compound in fetal bovine serum assessed as parent compound remaining measured after 8 hrs by HPLC-MS analysis; assay type: ADME, cell-free, Bos taurus; conditions: cattle, read-out: Stability
# [22] = Stability of the compound in fetal bovine serum assessed as parent compound remaining measured after 12 hrs by HPLC-MS analysis; assay type: ADME, cell-free, Bos taurus; conditions: cattle, read-out: Stability
# [23] = Stability of the compound in fetal bovine serum assessed as parent compound remaining measured after 36 hrs by HPLC-MS analysis; assay type: ADME, cell-free, Bos taurus; conditions: cattle, read-out: Stability
# [24] = tested on: K562; test: Potentiation of IMA-PROTAC-induced cytotoxicity against human K562 cells assessed as inhibition of cell growth at compound: IMA-PROTAC concentration ratio of 5:1 incubated for 48 hrs in presence of 3 umo/L IMA-PROTAC by MTT assay; assay type: functional, cell-based
# [25] = Cytotoxicity against human K562 cells assessed as cell viability at 0.01 to 100 uM incubated for 48 hrs by MTT assay; assay type: toxicity, cell-based; conditions: dose 0.01-100 µM, read-out: Activity
# [26] = Cytotoxicity against human KU812 cells assessed as cell viability at 0.01 to 100 uM incubated for 48 hrs by MTT assay; assay type: toxicity, cell-based; conditions: dose 0.01-100 µM, read-out: Activity
# [27] = Cytotoxicity against human CCRF-CEM cells assessed as cell viability at 0.01 to 100 uM incubated for 48 hrs by MTT assay; assay type: toxicity, cell-based; conditions: dose 0.01-100 µM, read-out: Activity
# [28] = Cytotoxicity against human THP-1 cells assessed as cell viability at higher concentrations incubated for 48 hrs by MTT assay; assay type: toxicity, cell-based; conditions: read-out: Activity
# [29] = tested on: K562; test: Increase in membrane permeability of IMA-PROTAC in human K562 cells assessed as potentiation of IMA-PROTAC-induced inhibition of STAT5 phosphorylation at PROTAC to compound concentration ratio of 1:5 to 1:3 incubated for 48 hrs in presence of 3 umol/L IMA-PROTAC by western blot analysis; assay type: functional, cell-based
# [30] = tested on: K562; test: Induction of apoptosis in human K562 cells assessed as viable cells at PROTAC to compound concentration ratio of 1:5 incubated for 48 hrs in presence of 3 umol/L IMA-PROTAC by AnnexinV-FITC/PI staining based flow cytometry (reference value: 99.85%); assay type: functional
# [31] = tested on: K562; test: Induction of apoptosis in human K562 cells assessed as early apoptotic cells at PROTAC to compound concentration ratio of 1:5 incubated for 48 hrs in presence of 3 umol/L IMA-PROTAC by AnnexinV-FITC/PI staining based flow cytometry (reference value: 0.03%); assay type: functional
# [32] = tested on: K562; test: Induction of apoptosis in human K562 cells assessed as late apoptotic cells at PROTAC to compound concentration ratio of 1:5 incubated for 48 hrs in presence of 3 umol/L IMA-PROTAC by AnnexinV-FITC/PI staining based flow cytometry (reference value: 0.01%); assay type: functional
# [33] = tested on: K562; test: Induction of apoptosis in human K562 cells assessed as necrotic cells at PROTAC to compound concentration ratio of 1:5 incubated for 48 hrs in presence of 3 umol/L IMA-PROTAC by AnnexinV-FITC/PI staining based flow cytometry (reference value: 0.1%); assay type: functional
# [34] = tested on: K562; test: Induction of cell cycle arrest in human K562 cells assessed as accumulation of cells at G2/M phase at PROTAC to compound concentration ratio of 1:5 incubated for 48 hrs in presence of 3 umol/L IMA-PROTAC by propidium iodide staining based flow cytometry; assay type: functional
# [35] = Interaction with IMA-PROTAC assessed as induction of formation of micelle cluster with uniform and distinct spherical morphology by transmission electron microscopy; assay type: physicochemical
# [36] = Interaction with IMA-PROTAC assessed as induction of assembly formation by transmission electron microscopy; assay type: physicochemical
# [37] = Increase in membrane permeation of IMA-PROTAC in human K562 cells assessed as increase in intracellular content of IMA-PROTAC incubated for 3 hrs by HPLC-MRM-MS analysis relative to control; assay type: functional
# [38] = tested on: K562; test: Increase in membrane permeability of IMA-PROTAC in human K562 cells assessed as potentiation of IMA-PROTAC-induced Bcr-Abl degradation at PROTAC to compound concentration ratio of 1:5 to 1:3 incubated for 48 hrs in presence of 3 umol/L IMA-PROTAC by western blot analysis; assay type: functional, cell-based
smiles,measurement,setting,value
CC(C)C[C@@H]1NC(=O)[C@H](Cc2c[nH]c3ccccc23)NC(=O)[C@H](Cc2ccccc2)NC(=O)[C@H](Cc2ccccc2)NC(=O)[C@H](CCCNC(=N)N)NC(=O)[C@H](CCCCN)NC(=O)[C@H](CCC(=O)O)NC(=O)[C@H](CO)NC(=O)[C@H](CCCNC(=N)N)NC1=O (cyclo(EKRFFWLRS)),fold change (FC),[1],5.28
same,fold change (FC),[2],5.65
CC(C)C[C@@H]1NC(=O)[C@H](Cc2csc3ccccc23)NC(=O)[C@H](Cc2ccc(O)cc2)NC(=O)[C@H](Cc2ccccc2)NC(=O)[C@H](CCCNC(=N)N)NC(=O)[C@H](CCCCN)NC(=O)[C@H](CCC(=O)O)NC(=O)[C@H](CO)NC(=O)[C@H](CCCNC(=N)N)NC1=O (cyclo([Bta]LRSEKRFY)),fold change (FC),[1],5.04
same,fold change (FC),[2],2.69
CC(C)C[C@@H]1NC(=O)[C@H](Cc2c[nH]c3ccccc23)NC(=O)[C@H](Cc2ccc(O)cc2)NC(=O)[C@H](Cc2ccccc2)NC(=O)CNC(=O)[C@H](CCCCN)NC(=O)[C@H](CC(=O)O)NC(=O)[C@H](CO)NC(=O)[C@H](CCCNC(=N)N)NC1=O (cyclo(DKGFYWLRS)),fold change (FC),[3],3.1
CC(C)C[C@H](NC(=O)[C@H](Cc1csc2ccccc12)NC(=O)[C@H](Cc1ccc(O)cc1)NC(=O)[C@H](Cc1ccccc1)NC(=O)[C@H](CCCNC(=N)N)NC(=O)[C@@H](N)CS)C(=O)N[C@@H](CCCNC(=N)N)C(=O)N[C@@H](CO)C(=O)N[C@@H](CS)C(=O)O (H-CRFY[Bta]LRSC-OH),Drug uptake,[4],65%
same,Drug uptake,[5],65%
CC(C)C[C@@H]1NC(=O)[C@H](Cc2c[nH]c3ccccc23)NC(=O)[C@H](Cc2ccccc2)NC(=O)[C@H](Cc2ccccc2)NC(=O)CNC(=O)[C@H](CCCCN)NC(=O)[C@H](CCC(=O)O)NC(=O)[C@H](CO)NC(=O)[C@H](CCCNC(=N)N)NC1=O (cyclo(EKGFFWLRS)),fold change (FC),[1],2.8
CC(C)C[C@@H]1NC(=O)[C@H](Cc2c[nH]c3ccccc23)NC(=O)[C@H](Cc2ccc(O)cc2)NC(=O)[C@H](Cc2ccccc2)NC(=O)[C@H](CCCNC(=N)N)NC(=O)[C@H](CCCCN)NC(=O)[C@H](CCC(=O)O)NC(=O)[C@H](CO)NC(=O)[C@H](CCCNC(=N)N)NC1=O (cyclo(EKRFYWLRS)),fold change (FC),[1],9.24
same,fold change (FC),[2],7.99
same,fold change (FC),[6],33.3
same,fold change (FC),[7],11.7
same,Drug uptake,[8],Dose-Dependent Effect
same,Drug uptake,[9],Dose-Dependent Effect
same,Drug uptake,[10],Tde
same,Drug uptake,[11],Tde
same,Drug uptake,[12],Active
same,Drug uptake,[13],Active
same,Drug uptake,[14],Active
same,Drug uptake,[15],Active
same,Drug uptake,[16],Active
same,Drug uptake,[17],Active
same,Drug uptake,[18],Not Active
same,Drug uptake,[19],Not Active
same,Drug uptake,[20],Not Active
same,remaining at 8 h,[21],100%
same,remaining at 12 h,[22],80%
same,remaining at 36 h,[23],75%
same,Activity,[24],inactive
same,"viability at 48 h, up to 100 µM",[25],> 75%
same,"viability at 48 h, up to 100 µM",[26],> 75%
same,"viability at 48 h, up to 100 µM",[27],> 75%
same,viability at 48 h,[28],> 75%
same,Activity,[29],Active
same,Activity,[30],87.64%
same,Activity,[31],10.71%
same,Activity,[32],1.58%
same,Activity,[33],0.06%
same,Activity,[34],Active
same,Activity,[35],Not Active
same,Activity,[36],Not Active
same,fold change (FC),[37],2.05
same,Activity,[38],Active
CC(C)C[C@H](NC(=O)[C@H](Cc1csc2ccccc12)NC(=O)[C@H](Cc1ccc(O)cc1)NC(=O)[C@H](Cc1ccccc1)NC(=O)CNC(=O)[C@@H](N)CS)C(=O)N[C@@H](CCCNC(=N)N)C(=O)N[C@@H](CO)C(=O)N[C@@H](CS)C(=O)O (H-CGFY[Bta]LRSC-OH),fold change (FC),[3],4.78
